Consider 25 compounds from patent US20230117324A1, “OXAZINE MONOACYLGLYCEROL LIPASE (MAGL) INHIBITORS” (Hoffmann-La Roche Inc., priority 2018, published 2023).

In the test the target is T1, MAGL (Homo sapiens, UniProt Q99685).
T1 sequence (Q99685 1-303): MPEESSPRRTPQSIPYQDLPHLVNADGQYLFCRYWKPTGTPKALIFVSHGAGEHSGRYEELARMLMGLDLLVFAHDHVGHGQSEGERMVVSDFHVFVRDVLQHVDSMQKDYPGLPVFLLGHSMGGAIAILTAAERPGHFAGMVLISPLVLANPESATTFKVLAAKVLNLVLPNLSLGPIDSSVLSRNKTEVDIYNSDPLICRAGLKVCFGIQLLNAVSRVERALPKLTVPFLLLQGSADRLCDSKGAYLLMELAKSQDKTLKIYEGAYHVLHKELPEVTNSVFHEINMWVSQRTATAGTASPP
The experiment in a line: MAGL inhibition, 2-AG assay (hydrolysis of 2-arachidonoylglycerol, arachidonic acid by mass spectrometry). The class given is biochemical. To be noted: 2-AG assay (footnote [b]). The gist of the method:
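Hydrolysis of 8 μM 2-arachidonoylglycerol by […] was run for 30 min at RT after a 15 min compound preincubation, in Tris/EDTA/Tween buffer. Test compounds spanned […]. The product was measured by online SPE-MS/MS (transitions 303.1→259.1 and 311.1→267.0), and activity was derived from the arachidonic acid/d8-arachidonic acid signal ratio.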
Take `N#Cc1ccccc1-c1ccc(C2CN(C(=O)N3CC[C@@H]4OCC(=O)N[C@@H]4C3)C2)cc1` [Example 127, 4′-(1-((4aR,8aS)-3-Cxooctahydro-2H-pyrido[4,3-b][1,4]oxazine-6-carbonyl)azetidin-3-yl)-[1,1′-biphenyl]-2-carbonitrile]: the IC50 is 0.5 nM.
Take `O=C1CO[C@H]2CCN(C(=O)N3CC(c4ccc(-c5ccccc5C(F)F)cc4)C3)C[C@H]2N1` [Example 142, (4aR,8aS)-6-[3-[4-[2-(Difluoromethyl)phenyl]phenyl]azetidine-1-carbonyl]-4,4a,5,7,8,8a-hexahydropyrido[4,3-b][1,4]oxazin-3-one]: the concentration for half-maximal inhibition (IC50) was 0.1 nM.
`CC(Oc1ccc(C(F)(F)F)cc1F)C1CN(C(=O)N2CC[C@@H]3OCC(=O)N[C@@H]3C2)C1` (single isomer, unassigned) [Example 97, (4aR,8aS)-6-(3-((S or R)-1-(2-Fluoro-4-(trifluoromethyl)phenoxy)ethyl)azetidine-1-carbonyl)hexahydro-2H-pyrido[4,3-b][1,4]oxazin-3(4H)-one] had an IC50 of 16 nM.
For `O=C1CO[C@H]2CCN(C(=O)N3CCC(C(c4ccc(F)cc4)c4ccc(OCCF)cc4)CC3)C[C@H]2N1` (single isomer, unassigned) [Example 109, (4aR,8aS)-6-(4-((S or R)-(4-(2-Fluoroethoxy)phenyl)(4-fluorophenyl)methyl)piperidine-1-carbonyl)hexahydro-2H-pyrido[4,3-b][1,4]oxazin-3(4H)-one], the half-maximal inhibitory concentration (IC50) is 0.4 nM.
Compound `Cc1ccccc1-c1ccc(C2CN(C(=O)N3CC[C@@H]4OCC(=O)N[C@@H]4C3)C2)cc1` [Example 137, (4aR,8aS)-6-(3-(2′-Methyl-[1,1′-biphenyl]-4-yl)azetidine-1-carbonyl)hexahydro-2H-pyrido[4,3-b][1,4]oxazin-3(4H)-one] returned a half-maximal inhibitory concentration (IC50) of 0.1 nM.
Turning to `CC1(C)CCN(c2ccc(C3CN(C(=O)N4CC[C@@H]5OCC(=O)N[C@@H]5C4)C3)cc2)C1` [Example 152, (4aR,8aS)-6-(3-(4-(3,3-Dimethylpyrrolidin-1-yl)phenyl)azetidine-1-carbonyl)hexahydro-2H-pyrido[4,3-b][1,4]oxazin-3(4H)-one], the IC50 is 0.4 nM.
As for `O=C1CO[C@H]2CCN(C(=O)N3CCC(c4cc(Cl)cc(OCC(F)(F)F)c4)C3)C[C@H]2N1` (single isomer, unassigned) [Example 239, (4aR,8aS)-6-((S or R)-3-(3-Chloro-5-(2,2,2-trifluoroethoxy)phenyl)pyrrolidine-1-carbonyl)hexahydro-2H-pyrido[4,3-b][1,4]oxazin-3(4H)-one], 39 nM corresponded to half-maximal inhibition (IC50).
`CC(OC1CN(C(=O)N2CC[C@@H]3OCC(=O)N[C@@H]3C2)C1)c1ccc(C(F)(F)F)cc1` (stereo partly drawn) [Example 90, (4aR,8aS)-6-[3-[1-[4-(Trifluoromethyl)phenyl]ethoxy]azetidine-1-carbonyl]-4,4a,5,7,8,8a-hexahydropyrido[4,3-b][1,4]oxazin-3-one]: the IC50 is 49 nM.
To `COc1ccc(C(c2ccccc2)C2CCN(C(=O)N3CC[C@@H]4OCC(=O)N[C@@H]4C3)CC2)cc1OC` (single isomer, unassigned) [Example 87, (4aR,8aS)-6-(4-((S or R)-(3,4-Dimethoxyphenyl)(phenyl)methyl)piperidine-1-carbonyl)hexahydro-2H-pyrido[4,3-b][1,4]oxazin-3(4H)-one] belongs 0.4 nM; to `COC(=O)C(C)(C)c1ccc(C2CN(C(=O)N3CC[C@@H]4OCC(=O)N[C@@H]4C3)C2)cc1` [Example 234, Methyl 2-methyl-2-(4-(1-((4aR,8aS)-3-Oxooctahydro-2H-pyrido[4,3-b][1,4]oxazine-6-carbonyl)azetidin-3-yl)phenyl)propanoate], 2 nM.
To `O=C1CO[C@H]2CCN(C(=O)N3CCC(C(c4ccc(F)cc4)c4nc(C(F)(F)F)no4)CC3)C[C@H]2N1` (stereo partly drawn) [Example 102, (4aR,8aS)-6-(4-((4-Fluorophenyl)(3-(trifluoromethyl)-1,2,4-oxadiazol-5-yl)methyl)piperidine-1-carbonyl)hexahydro-2H-pyrido[4,3-b][1,4]oxazin-3(4H)-one] belongs 5 nM.
To `CC1CN(C(=O)N2CC[C@@H]3OCC(=O)N[C@@H]3C2)CCC1c1ccc(C(C)(F)F)cn1` (single isomer, unassigned) [Example 44, (4aR,8aS)-6-((3S or 3R)-4-(5-(1,1-Difluoroethyl)pyridin-2-yl)-3-methylpiperidine-1-carbonyl)hexahydro-2H-pyrido[4,3-b][1,4]oxazin-3(4H)-one] belongs 381 nM; to `O=C1CO[C@H]2CCN(C(=O)N3CC(c4ccc(C5CCCOC5)cc4)C3)C[C@H]2N1` (stereo partly drawn) [Example 276, (4aR,8aS)-6-[3-(4-Tetrahydropyran-3-ylphenyl)azetidine-1-carbonyl]-4,4a,5,7,8,8a-hexahydropyrido[4,3-b][1,4]oxazin-3-one], 4 nM; to `O=C1CO[C@H]2CCN(C(=O)N3CCC(c4ccc(-c5ccc(Cl)cc5Cl)cc4)CC3)C[C@H]2N1` [Example 169, (4aR,8aS)-6-(4-(2′,4′-Dichloro-[1,1′-biphenyl]-4-yl)piperidine-1-carbonyl)hexahydro-2H-pyrido[4,3-b][1,4]oxazin-3(4H)-one], 4 nM.
Compound `CC(OC1CN(c2ccc(C3CN(C(=O)N4CC[C@@H]5OCC(=O)N[C@@H]5C4)C3)cc2)C1)C(F)(F)F` (single isomer, unassigned) [Example 161, (4aR,8aS)-6-[3-[4-[3-[(1R or 1S)-2,2,2-Trifluoro-1-methyl-ethoxy]azetidin-1-yl]phenyl]azetidine-1-carbonyl]-4,4a,5,7,8,8a-hexahydropyrido[4,3-b][1,4]oxazin-3-one] registered an IC50 of 4 nM.
Turning to `CC(Oc1ccc(C(F)(F)F)cc1Cl)C1CN(C(=O)N2CC[C@@H]3OCC(=O)N[C@@H]3C2)C1` (single isomer, unassigned) [Example 76, (4aR,8aS)-6-(3-(S or R)-(1-(2-Chloro-4-(trifluoromethyl)phenoxy)ethyl)azetidine-1-carbonyl)hexahydro-2H-pyrido[4,3-b][1,4]oxazin-3(4H)-one], half-maximal inhibition (IC50) required 1 nM.
Turning to `O=C1CO[C@H]2CCN(C(=O)N3CC(c4ccc(-c5ccccc5C(F)(F)F)cc4)C3)C[C@H]2N1` [Example 125, (4aR,8aS)-6-(3-(2′-(Trifluoromethyl)-[1,1′-biphenyl]-4-yl)azetidine-1-carbonyl)hexahydro-2H-pyrido[4,3-b][1,4]oxazin-3(4H)-one], the IC50 came out at 0.04 nM.
Consider `CC1CN(c2ccc(C3CN(C(=O)N4CC[C@@H]5OCC(=O)N[C@@H]5C4)C3)cc2)C1` [Example 151, (4aR,8aS)-6-(3-(4-(3-Methylazetidin-1-yl)phenyl)azetidine-1-carbonyl)hexahydro-2H-pyrido[4,3-b][1,4]oxazin-3(4H)-one], for which the IC50 was found to be 5 nM.
Regarding `COc1ccc(C2CN(C(=O)N3CC[C@@H]4OCC(=O)N[C@@H]4C3)C2)cn1` [Example 183, (4aR,8aS)-6-[3-(6-Methoxypyridin-3-yl)azetidine-1-carbonyl]-4,4a,5,7,8,8a-hexahydropyrido[4,3-b][1,4]oxazin-3-one], the IC50 was 1600 nM.
With `CS(=O)(=O)c1ccc(-c2ccc(C3CN(C(=O)N4CC[C@@H]5OCC(=O)N[C@@H]5C4)C3)cc2)c(Cl)c1` [Example 155], the midpoint of inhibition, the IC50, lay at 0.8 nM.
To `O=C1CO[C@H]2CCN(C(=O)N3CC(c4ccc(-c5ccccc5Cl)cc4)C3)C[C@H]2N1` [Example 112, (4aR,8aS)-6-(3-(2′-Chloro-[1,1′-biphenyl]-4-yl)azetidine-1-carbonyl)hexahydro-2H-pyrido[4,3-b][1,4]oxazin-3(4H)-one] belongs 0.1 nM.
Compound `O=C1CO[C@H]2CCN(C(=O)N3CC(c4ccc(N5CC6(C5)CC(F)(F)C6)cc4)C3)C[C@H]2N1` [Example 191, (4aR,8aS)-6-[3-[4-(6,6-Difluoro-2-azaspiro[3.3]heptan-2-yl)phenyl]azetidine-1-carbonyl]-4,4a,5,7,8,8a-hexahydropyrido[4,3-b][1,4]oxazin-3-one] showed a concentration for half-maximal inhibition (IC50) of 0.5 nM.
As to `O=C1CO[C@H]2CCN(C(=O)N3CCC(c4cccc(Br)c4)C3)C[C@H]2N1` (single isomer, unassigned) [Example 229, (4aR,8aS)-6-[(3R or S)-3-(3-Bromophenyl)pyrrolidine-1-carbonyl]-4,4a,5,7,8,8a-hexahydropyrido[4,3-b][1,4]oxazin-3-one], the midpoint of inhibition, the IC50, lay at 229 nM.
`O=C1CO[C@H]2CCN(C(=O)N3CC(c4ccc(N5CCCC5C(F)(F)F)cn4)C3)C[C@H]2N1` (stereo partly drawn) [Example 207, (4aR,8aS)-6-(3-(5-(2-(Trifluoromethyl)pyrrolidin-1-yl)pyridin-2-yl)azetidine-1-carbonyl)hexahydro-2H-pyrido[4,3-b][1,4]oxazin-3(4H)-one] gave an IC50 of 6 nM.
With `CS(=O)(=O)c1cccc(C(c2ccncc2)C2CCN(C(=O)N3CC[C@@H]4OCC(=O)N[C@@H]4C3)CC2)c1` (single isomer, unassigned) [Example 178, (4aR,8aS)-6-[4-[(S or R)-(3-methylsulfonylphenyl)-(4-pyridyl)methyl]piperidine-1-carbonyl]-4,4a,5,7,8,8a-hexahydropyrido[4,3-b][1,4]oxazin-3-one], the IC50 was 131 nM.

Broadly, the IC50 is the concentration at which inhibition is half-maximal. A low value points to greater potency.
